What was measured:
Type in all cases: cell-based
[1] = system: SH-SY-5Y; assay: Cell viability assay, SH-SY-5Y; conditions: Homo sapiens, SH-SY5Y; brain carcinoma cell line SH-SY-5Y
Description: (§1) Antitumor activity of the compounds and doxorubicin as a positive control was assessed by using the CellTiter-Blue Cell Viability Assay (Promega, #G8082) or CellTiter-Glow® Luminescent Cell Viability assay (Promega #G7572) according to the manufacturer's instructions. The compounds were tested at 5 or 6 concentrations in half-log increments (highest concentration 30 μM or 100 μM) in duplicate or triplicate well conditions.
(§2) Tumor cells were grown at 37° C. in a humidified atmosphere with 5% CO2 in RPMI 1640 or DMEM medium, supplemented with 10% (v/v) fetal calf serum and 50 μg/ml gentamicin for up to 20 passages, and were passaged once or twice weekly. Cells were harvested using TrypLE or PBS buffer containing 1 mM EDTA, and the percentage of viable cells was determined using a CASY Model TI cell counter (OMNI Life Science). Cells were harvested from exponential phase cultures, counted and plated in 96 well flat-bottom microtiter plates at a cell density depending on the cell line's growth rate (4,000-20,000 cells/well depending on the cell line's growth rate, up to 60,000 for hematological cancer cell lines) in RPMI 1640 or DMEM medium supplemented with 10% (v/v) fetal calf serum and 50 μg/ml gentamicin (140 μl/well). […] Viability of cells was quantified by the CellTiter-Blue® cell viability assay (Promega G8081) or CellTiter-Glow® Luminescent Cell Viability assay (Promega #G7572). […]

[2] = system: HCC1806; assay: Cell viability assay, HCC1806; conditions: Homo sapiens; breast carcinoma cell line HCC1806
Description: as §1, §2

[3] = system: CALU-6; assay: Cell viability assay, CALU-6; conditions: Homo sapiens; lung carcinoma cell line CALU-6
Description: as §1, §2

[4] = system: brain cancer cell; assay: Cell viability, brain cancer cells (panel statement); conditions: text summary of Tables 3A-3C; read-out: IC50, brain cancer cell growth
Description: as §1, §2

[5] = system: breast PDX; assay: Cell viability, breast PDX (panel statement); conditions: Table 5; read-out: IC50, growth of breast PDX
Description: (§3) PDX-derived cell cultures were obtained from tumors explanted from mice and isolated by mechanical and enzymatic dissociation. […] Cells were harvested and seeded in 96-wells plates at a density of 1.25 to 5×10^3 cells/well for cytotoxicity assays. Cells were incubated 48 h at 37° C. prior to addition of test molecules and vehicle (DMSO, 0.1%) at desired final concentrations. Cell viability was assessed before drugs' addition (To) and 5 days after test molecules addition by measuring ATP cell content using CellTiter-Glo® Luminescent Cell Viability Assay (Promega) according to the manufacturer's instructions. Luciferase activity was measured on a luminometer (PerkinElmer® EnVision™). Each concentration of compounds was tested in triplicate.
(§4) Viability was calculated as a percentage of ATP value compared to vehicle treated controls.
(§5) For PDX primary cell cultures, the tumour tissue was washed with PBS containing antibiotic-antimycotic and non-tumour tissue and necrotic tumour tissues were separated. The tumour tissue was transferred to a new dish and cut into 1˜2 mm^3 fragments, resuspended in RPMI-1640 medium and centrifuged at 1,200 rpm for 6 min at room temperature. The pelleted material was resuspended with 15 mL of Tumour Cell Digestion Solution and incubated at 37° C. for 1 hour with agitation. […]

[6] = system: esophagus PDX; assay: Cell viability, esophagus PDX (panel statement); conditions: text summary of Table 9; read-out: IC50, esophagus PDX growth
Description: as §3, §4, §5

[7] = system: lung PDX; assay: Cell viability, lung PDX (panel statement); conditions: text summary of Table 15; read-out: IC50, lung PDX growth
Description: as §3, §4, §5

[8] = system: prostate cancer cell; assay: Cell viability, prostate cancer cells (panel statement); conditions: summary of Table 20; read-out: IC50, prostate cancer cell growth
Description: as §1, §2

In the case of COc1c(O)ccc2c(=O)c(O)c(-c3ccc(CCCC[P+](c4ccccc4)(c4ccccc4)c4ccccc4)cc3)oc12 [SND190, (4-(4-(3,7-Dihydroxy-8-methoxy-4-oxo-4H1-chromen-2-yl)phenyl)butyl)triphenylphosphonium bromide], the IC50 [1] is reported as 2600 nM, the IC50 [2] is reported as 2800 nM and the IC50 [3] is reported as 2390 nM. The IC50 [4] was < 20000 nM, the IC50 [5] was < 20000 nM and the IC50 [6] was < 20000 nM. The IC50 [7] was < 20000 nM and the IC50 [8] was < 10000 nM.

— US20240124503A1, “HETEROAROMATIC PHOSPHONIUM SALTS AND THEIR USE TREATING CANCER” (FLORATEK PHARMA S.A., priority 2021, published 2024)
